Source: patent EP0292365A2, “4-Amino-5,8-quinazolindione derivatives, process for their preparation and pharmaceutical compositions containing them” (CENTRE NATIONAL DE LA RECHERCHE SCIENTIFIQUE, priority 1987, dated 1988)

What was measured:
cellules MCF-7 = experiment: Effect on cell cycle phases, MCF-7 line; assay type: cell-based, humaine; details: summary of tableau D
Description: (§1) Les cellules tumorales en croissance exponentielle sont ensemencées (10.000 cellules/ml) dans des boîtes à Petri contenant au fond de la boîte un couvre-objet (18 x 18 mm) et 3 ml de MEM (MEM = milieu essentiel minimum) + 5 % FCS (FCS = serum de veau fetal) (v/v). Après 24 heures d'incubation, quand les cellules sont bien attachées au fond de la boîte, le milieu est remplacé par MEM expérimental contenant 5 % FCS (v/v) et enrichi, par exemple de : • a) 3 ml du milieu (MEM + 5 % FCS) = témoins • b) 3 ml du milieu contenant une dose élevée du composé à tester : 10 µg/ml : (M) • c) milieu contenant une faible dose du composé à tester : 0.01 µg/ml (f) respectivement aux jours 1, 2, 3 et 4 après addition du milieu expérimental dans les boîtes de Petri. Trois couvre-objets sont fixés pour chaque condition expérimentale : éthanol 95° (75 v), formol neutre à 40 % (20 v), acide acétique (5 v), pendant 10 minutes. Les cellules témoins cultivées dans le milieu expérimental sans le produit à tester sont fixées au même moment. A la fin de la fixation, les couvre-objets sont retournés et montés sur des lames histologiques à l'aide de produit commercialisé sous la marque DPX par la Société British Drug House et conservés à l'abri de la lumière et à 4° en attendant d'être colorés.
Les lames avec les couvre-objets sont colorées par une réaction de Feulgen modifiée. […]

[1] = Solubility in water (statement); assay type: physicochemical
[2] = Determination of toxicity (DLo), single intraperitoneal dose; assay type: in vivo; details: voie intrapéritonéale, dose unique, souris Swiss, suivies pendant un mois
Excerpt: Ils sont tous administrés, par voie intrapéritonéale (ip), à des souris Swiss de 22 ± 2 g, à doses uniques exprimées en mg/kg de poids corporel. Les animaux sont suivis pendant un mois. La mortalité et les signes de toxicité sont relevés. On détermine ainsi la DLoqui sera la dose maximale utilisée pour la détermination de l'activité antitumorale.

[3] = system: cellules leucémiques L 1210; experiment: In vitro cytotoxicity: growth inhibition of L 1210 leukemia cells (Coulter count); assay type: cell-based, souris; details: Mus musculus, L1210, 48 h, read-out: CI50 après 48 h de culture
Description: La détermination de la cytotoxicité in vitro sur les cellules leucémiques L 1210 est la méthode utilisée pour sélectionner les molécules potentiellement antitumorales. Le protocole mis en oeuvre est le suivant :
les cellules leucématiques L 1210 adaptées à la culture en suspension stationnaire sont entretenues dans du milieu RPMI 1640 (commercialisé par Seromed) additionné de 20 % de sérum de cheval décomplémenté, L-glutamine (2 mM), pénicilline (200 U/ml), streptomycine (50µg/ml) et cultivées à 37° C dans une atmosphère à 5 % de C02. Les cultures testées par la méthode de BARILE (BARILE M.F. Mycoplasmal contamination of cell culture, in Contamination in Tissue Culture, J. Fogh (ed.) Acad. Press, 132-156, 1973) sont exemptes de contaminations bactériennes et mycoplasmiques.
Pour les expérimentations, les cellules sont ensemencées à la concentration de 0,8.10^5 cellules/ml et cultivées par 2 ml dans des flacons de 15 ml. Les substances à étudier sont dissoutes dans du DMSO (1 % final) dont on a préalablement vérifié l'innocuité. Des quantités croissantes de produit à tester sont ajoutées au temps 0 et des numérations sont faites au compteur COULTER après 24 et 48 heures de culture. Des séries de contrôle sont effectuées avec des quantités de DMSO équivalentes à celles des séries traitées.
Le temps de doublement des cellules témoins est approximativement de 12 heures.
La cytotoxicité est déterminée d'après l'inhibition de croissance des cellules L 1210, calculée par rapport aux témoins correspondants selon la formule : [formula] • T = concentration de cellules non traitées, • t = concentration de cellules traitées.
La concentration de produit qui diminue la croissance cellulaire de 50 % (Clso) est calculée d'après la méthode des régressions linéaires en coordonnées log-probit.
Lorsque la Cl50 est voisine de la micromolarité (égale ou inférieure à 1 µM), il existe une présomption d'activité antitumorale et les essais in vivo indiqués ci-après sont effectués.
A titre d'exemple, la CI50 mesurée 48 heures après traitement des cellules par les composés de l'invention testés est la suivante : […]

cellules de lignée HBL = experiment: Effect on in vitro cell growth, HBL line (Feulgen staining, automated scanning microscopy); assay type: cell-based, humaine; details: for nombre de cellules observées par champ de microscope: HBL
Description: as §1
Les lames avec les couvre-objets sont colorées par une réaction de Feulgen modifiée. Toutes les lames d'une condition expérimentale sont conditionnées par le réactif de Feulgen en même temps, pendant une heure, après hydrolyse dans un milieu HCI 6N pendant une heure à 20° C. Les préparations cellulaires sont ensuite conservées à l'abri de la lumière et à 4°C en attendant l'analyse.
Grâce à un système d'analyse microscopique à balayage automatique, on détermine l'effet de la drogue sur la croissance cellulaire, au cours du temps, sur deux lignées cellulaires tumorales d'origine humaine : la lignée MCF-7 d'origine mammaire et la lignée HBL (mélanome malin).
On a représenté dans le tableau C les résultats relatifs à l'action du composé 63 sur la croissance des cellules de lignée MCF-7 et dans le tableau C BIS, les résultats relatifs à l'action du composé 63 sur la croissance des cellules de lignée HBL. Ces résultats montrent le nombre de cellules survivant au traitement après 1, 2, 3 et 4 jours d'incubation et à trois doses différentes (10 µg/ml, 1 µg/ml et 0,1 µg/ml).
Chaque chiffre correspond au nombre de cellules observées par champ de microscope.

## CN(C)CCCNc1ncnc2c1C(=O)C(N1CC1)=C(N1CC1)C2=O [composé 63]
Cellules MCF-7
  effet sur le cycle cellulaire (MCF-7): bloque les cellules en phase S
[1]
  solubilité dans l'eau: hydrosoluble
[2]
  DLo: ~3 mg/kg
[3]
  IC50: 2.7 nM
Cellules de lignée HBL; 0.1µg/ml (f), 1j
  nombre de cellules observées par champ de microscope: 402±100 ns
Cellules de lignée HBL; 0.1µg/ml (f), 2j
  nombre de cellules observées par champ de microscope: 233± 36
Cellules de lignée HBL; 0.1µg/ml (f), 3j
  nombre de cellules observées par champ de microscope: 633± 83 ns
Cellules de lignée HBL; 0.1µg/ml (f), 4j
  nombre de cellules observées par champ de microscope: 474±265 ns
Cellules de lignée HBL; 1µg/ml (M), 1j
  nombre de cellules observées par champ de microscope: 282± 17 ns
Cellules de lignée HBL; 1µg/ml (M), 2j
  nombre de cellules observées par champ de microscope: 187± 35
Cellules de lignée HBL; 1µg/ml (M), 3j
  nombre de cellules observées par champ de microscope: 199± 71
Cellules de lignée HBL; 1µg/ml (M), 4j
  nombre de cellules observées par champ de microscope: 197± 67
Cellules de lignée HBL; 10µg/ml (F), 1j
  nombre de cellules observées par champ de microscope: 318± 83 ns
Cellules de lignée HBL; 10µg/ml (F), 2j
  nombre de cellules observées par champ de microscope: 166± 28
Cellules de lignée HBL; 10µg/ml (F), 3j
  nombre de cellules observées par champ de microscope: 553±100 ns
Cellules de lignée HBL; 10µg/ml (F), 4j
  nombre de cellules observées par champ de microscope: 210± 48
Cellules de lignée HBL; à moyenne et forte dose, summary of tableau C BIS
  croissance des cellules HBL: ralentit faiblement la croissance
